US20110039825A1, “LIGANDS OF ALPHA-ADRENOCEPTORS, DOPAMINE, HISTAMINE, IMIDAZOLINE AND SEROTONIN RECEPTORS AND THEIR USE” (Alla Chem, LLC, priority 2007, published 2011)

Key:
recombinant human 5-HT1A = target: T1, recombinant human 5-HT1A (Homo sapiens, UniProt P08908); assay: radioligand binding to serotonin receptor 5-HT1A ([3H] 8-OH-DPAT); details: for 5-HT1A % inhibition: 10 μM ligand; for inhibition at 1 µM: ligand concentration 1 μM
T1 construct: expressed in transfected cells; host or cells: CHO
T1 sequence (P08908 1-422): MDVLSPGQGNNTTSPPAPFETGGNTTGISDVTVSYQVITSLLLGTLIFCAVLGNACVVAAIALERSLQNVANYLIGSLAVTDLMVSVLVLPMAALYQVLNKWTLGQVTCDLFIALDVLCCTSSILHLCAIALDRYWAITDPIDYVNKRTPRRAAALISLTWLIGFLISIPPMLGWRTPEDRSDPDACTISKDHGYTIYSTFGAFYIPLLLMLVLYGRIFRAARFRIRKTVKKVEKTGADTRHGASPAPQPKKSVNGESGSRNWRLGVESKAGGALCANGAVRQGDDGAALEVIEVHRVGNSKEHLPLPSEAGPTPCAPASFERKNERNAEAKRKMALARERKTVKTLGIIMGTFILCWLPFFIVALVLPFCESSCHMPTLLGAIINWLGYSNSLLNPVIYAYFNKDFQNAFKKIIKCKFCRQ
Excerpt: J Pharmacol Exp Ther. 306(1): 301-309, 2003]. […] Metergoline is used as positive control.

[1] = target: T2, recombinant human 5-HT6 receptor (Homo sapiens, UniProt P50406); assay: radioligand binding to serotonin receptor 5-HT6 ([3H] Lysergic acid diethylamide)
T2 construct: expressed in transfected cells; host or cells: HeLa
T2 sequence (P50406 whole entry): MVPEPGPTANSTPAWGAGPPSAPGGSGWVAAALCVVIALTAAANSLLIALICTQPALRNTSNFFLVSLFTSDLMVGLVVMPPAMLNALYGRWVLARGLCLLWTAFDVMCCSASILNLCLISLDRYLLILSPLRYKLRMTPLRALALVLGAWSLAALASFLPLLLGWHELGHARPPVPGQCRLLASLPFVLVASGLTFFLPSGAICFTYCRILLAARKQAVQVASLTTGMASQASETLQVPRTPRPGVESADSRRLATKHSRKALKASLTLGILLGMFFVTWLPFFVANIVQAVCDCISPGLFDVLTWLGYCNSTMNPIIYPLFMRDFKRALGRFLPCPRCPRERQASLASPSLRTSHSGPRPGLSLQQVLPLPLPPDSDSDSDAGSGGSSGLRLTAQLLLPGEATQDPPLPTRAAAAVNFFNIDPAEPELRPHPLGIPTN
Excerpt: Mol. Pharmacol. 43:320-327, 1993]. […] Methiothepin is used as positive control.

human 5-HT7 receptor = target: T3, human 5-HT7 receptor (Homo sapiens, UniProt P34969); assay: radioligand binding to serotonin receptor 5-HT7 ([3H] Lysergic acid diethylamide); details: 10 μM ligand
T3 construct: expressed in transfected cells; host or cells: CHO
T3 sequence (P34969 whole entry): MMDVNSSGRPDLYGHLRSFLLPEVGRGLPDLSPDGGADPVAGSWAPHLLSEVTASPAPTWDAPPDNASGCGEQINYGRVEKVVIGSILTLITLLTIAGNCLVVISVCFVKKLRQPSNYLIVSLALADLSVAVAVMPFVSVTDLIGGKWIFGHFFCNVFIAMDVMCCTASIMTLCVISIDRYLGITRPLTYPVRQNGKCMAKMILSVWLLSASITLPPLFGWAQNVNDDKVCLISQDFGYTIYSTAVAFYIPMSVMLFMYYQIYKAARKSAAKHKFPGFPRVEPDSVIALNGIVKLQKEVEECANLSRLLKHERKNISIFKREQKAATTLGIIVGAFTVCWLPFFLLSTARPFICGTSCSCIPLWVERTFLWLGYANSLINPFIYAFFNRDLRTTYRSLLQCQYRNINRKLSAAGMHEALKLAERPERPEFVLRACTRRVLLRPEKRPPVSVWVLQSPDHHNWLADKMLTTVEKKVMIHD
Excerpt: For this purpose sDNA of human 5-HT7 receptor is expressed in CHO cells as it was described in [Shen Y, Monsma F J Jr, Metcalf M A, Jose P A, Hamblin M W, and Sibley DR. […] J. Biol. Chem. 1993, 268, 18200-18204]. […] J. Pharmacol. Exp. Ther. 1994, 268:1403-1410]. […] Methiothepin is used as positive control.

imidazoline receptor I2 = assay: radioligand binding to imidazoline receptor I2 ([3H] Idazoxan); parameters: species or system rat; details: 10 μM ligand
Description: Determination of investigated compounds' binding to imidazoline I2 receptor is carried out according to the method described in [Brown C M, MacKinnon A C, McGrath J C, Spedding M and Kilpatrick A T, a2-Adrenoceptor subtypes and imidazoline-like binding in the rat brain. Br J. Pharmacol. 99:803-809, 1990]. […] Idazoxan is used as positive control.

human α2A receptor = target: T4, human α2A receptor (Homo sapiens, UniProt P08913); assay: radioligand binding to adrenergic receptor α2A ([3H] MK-912); details: 10 μM ligand
T4 construct: expressed in transfected cells; host or cells: Sf9
T4 sequence (P08913 1-465): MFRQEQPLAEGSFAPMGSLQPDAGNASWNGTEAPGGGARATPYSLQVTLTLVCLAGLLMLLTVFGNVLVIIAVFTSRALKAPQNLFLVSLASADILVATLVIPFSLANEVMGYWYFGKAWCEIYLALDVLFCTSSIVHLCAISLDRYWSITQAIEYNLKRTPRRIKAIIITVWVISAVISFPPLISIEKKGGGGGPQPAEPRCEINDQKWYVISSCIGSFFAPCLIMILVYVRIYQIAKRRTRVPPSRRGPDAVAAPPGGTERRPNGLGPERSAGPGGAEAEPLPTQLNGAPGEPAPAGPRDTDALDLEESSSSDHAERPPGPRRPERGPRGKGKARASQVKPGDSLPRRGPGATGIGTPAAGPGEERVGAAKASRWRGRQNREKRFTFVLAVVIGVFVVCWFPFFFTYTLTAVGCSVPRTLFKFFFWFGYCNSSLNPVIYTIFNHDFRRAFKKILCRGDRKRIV
Excerpt: J Pharmacol ExpTher. […] Yohimbine is used as positive control.

[2] = target: T5, recombinant human 5-HT2C receptor (Homo sapiens, UniProt P28335); assay: radioligand binding to serotonin receptor 5-HT2C ([3H] Mesulergine); details: ligand concentration 1 μM
T5 construct: expressed in transfected cells; host or cells: CHO-K1
T5 sequence (P28335 33-458): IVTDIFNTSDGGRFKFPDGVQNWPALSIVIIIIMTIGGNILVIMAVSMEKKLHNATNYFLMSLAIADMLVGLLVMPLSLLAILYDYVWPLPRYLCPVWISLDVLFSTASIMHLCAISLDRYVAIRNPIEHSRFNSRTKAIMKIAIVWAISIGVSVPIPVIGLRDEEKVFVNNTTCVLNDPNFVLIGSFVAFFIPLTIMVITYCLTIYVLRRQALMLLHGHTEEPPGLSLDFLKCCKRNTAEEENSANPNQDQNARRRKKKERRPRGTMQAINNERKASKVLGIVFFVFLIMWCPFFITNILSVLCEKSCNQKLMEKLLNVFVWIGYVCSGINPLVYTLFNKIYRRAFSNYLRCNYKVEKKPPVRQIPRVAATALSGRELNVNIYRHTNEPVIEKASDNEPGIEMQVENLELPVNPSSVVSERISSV
Excerpt: J. Neurochem. 69: 1449-1458, 1997]. […] SB242084 is used as positive control.

SMILES	5-HT1A % inhibition (recombinant human 5-HT1A)	5-HT7 % inhibition (human 5-HT7 receptor)	also measured
Cc1ccc2c(c1)c1c(n2CCc2ccc(F)cc2)CCN(C)C1.Cl [1.1.2(1-16)•HCl]	37%	95%	5-HT6 % inhibition ([1]; 10 μM ligand): 103%
Cc1ccc2c(c1)c1c(n2CCc2ccc(C(F)(F)F)cc2)CCN(C)C1.Cl [1.1.2(1-18)•HCl]	53%	103%	
Cc1ccc2c(c1)c1c(n2CCc2ccc(C)nc2)CCCN(C)C1 [1.2.2(4-1)]			imidazoline I2 receptor % inhibition (imidazoline receptor I2): 80%
Cc1ccc(CCn2c3c(c4cc(F)ccc42)CN(C)CCC3)cn1 [1.2.2(4-2)•2HCl]			inhibition at 1 µM (recombinant human 5-HT1A): 31%
Cc1ccc2c(c1)c1c(n2CCc2ccncc2)CCCN(C)C1 [1.2.2(5-2)]			α-Adrenoceptor α2A, % inhibition (human α2A receptor): 74%; inhibition at 1 µM (recombinant human 5-HT1A): 13%; inhibition at 1 µM [2]: 92%; inhibition at 1 µM ([1]; ligand concentration 1 μM, read-out: 5-HT6 % inhibition): 84%
CN1CCc2c(c3cc(F)ccc3n2CCCc2ccccc2)C1.Cl [1.3.3(8)•HCl]	−4%	83%	
CN1CCc2c(c3cc(F)ccc3n2Cc2ccccc2)C1.Cl [1.9(3)•HCl]		81%	
Cc1ccc2c(c1)c1c(n2Cc2ccccc2)CCCN(C)C1.Cl [1.10(4)•HCl]	19%	75%	
